Patent US20230406850A1, “CRYSTALLINE FORM OF HETEROCYCLIC COMPOUND, PREPARATION METHOD THEREFOR AND APPLICATION THEREOF” (WUHAN LL SCIENCE AND TECHNOLOGY DEVELOPMENT CO., LTD., priority 2020, published 2023)
Converted amounts (≈) assume the structure as drawn.

Legend:
[1] = Mechanical stability test (grinding and pelleting); assay type: physicochemical; conditions: grinding 2 min and 5 min
Description: The mechanical stability of crystalline forms I and III were investigated by grinding and pelleting. Grinding test method: the sample to be measured was put in a mortar and grinded for 2 minutes and 5 minutes respectively, then XRPD was test, and the changes of crystalline form and crystallinity were observed. Pelleting test method: the sample was placed in the die of tablet press, kept at 40 MPa for one minute, and then the crystalline form taken out to test XRPD.

[2] = Competitive slurrying experiment of crystalline forms I and V; assay type: physicochemical; conditions: acetone, ethanol, room temperature and 60° C., three days
Description: Competitive slurrying experiment was carried out: the same amount of crystalline forms I and V were weighed and mixed evenly, then XRPD was tested, and the results were used as T0 of competitive slurrying experiment. The mixture was slurried in acetone, ethanol and water at room temperature and 60° C. Three days later, solid samples were obtained by filtration, and. XRPD was tested.

[3] = Physical and chemical stability (stability boxes, XRPD and HPLC); assay type: physicochemical
Description: About 10 mg of crystalline forms I, III and V were placed in the stability boxes at 40° C./75% RH (open) and 60° C. (covered) for seven days, and some samples were taken out for XRPD and HPLC tests at 0 and 7 days, respectively, to investigate their physical and chemical stability.

[4] = Solid-state crystal transformation between crystalline forms I and V; assay type: physicochemical; conditions: mixture of forms I and V, oven at 60° C. and room temperature dryer, one week
[5] = Pharmacokinetics, crystalline form I versus crystalline form V; assay type: in vivo, Beagle dog; conditions: 10 mg/kg po, fasting, male dogs
Description: Beagle dog (general grade, Beijing Masi Biotechnology Co., Ltd.) was given compound A by single oral gavage to study the pharmacokinetics of the compound in plasma. The test drug (100 mg/kg dosage, 5 mL/kg administration volume) was given by gavage, and samples were collected at 10 minutes, 30 minutes, 1 hour, 2 hours, 4 hours, 6 hours, 8 hours, 10 hours, 24 hours and 48 hours after administration: peripheral venipuncture was performed, and about 1.0 mL whole blood was collected from each animal at every time point, and blood samples were collected. Within 60 minutes after blood collection, 0.2 mL of whole blood was separated into a cryopreservation tube, and deionized water was added at a ratio of 1:1, which was mixed upside down and then frozen. The remaining samples were centrifuged at 2,000 g at 2 to 8° C. for 10 min to obtain plasma samples, and the hemolysis of each sample was recorded, and the influence on detection was evaluated, and then the color of plasma was observed and recorded on the blood collection table (“−” means no hemolysis, “+” means pink supernatant and “++” means red supernatant).
The concentration of compound A in plasma was determined by LC-MS/MS method (Non-GLP). The pharmacokinetic parameters were calculated by WinNonlin (Phoenix™, version 8.1) or other similar software. If applicable plasma drug concentration-time data are available, the following pharmacokinetic parameters are calculated: CL (clearance), Vss (steady-state apparent volume of distribution), T1/2 (elimination half-life), Cmax (peak concentration), Tmax (peak time), AUC (area under the concentration-time curve), MRT (mean residence time). Pharmacokinetic data were described by descriptive statistics, such as mean, standard deviation and sample size.
Comparison of crystalline form and crystalline form V is the same for 3 dogs (male), 10 mg/kg po, fasting, 0.5% CMC-Na stirring for 3 hours, and then administration (suspension), and the data obtained are as shown in Table 7.

[6] = Dynamic vapor sorption (DVS) hygroscopicity; assay type: physicochemical
Description: The solid was analyzed by DVS using IGA sorp dynamic vapor sorption instrument. • Temperature: 25° C. • Gas flow: 250 mL/min. • Scan cycle: 2. • Minimum test time: 30 min. • Maximum test time: 2 hours. • Waiting for balance: 98%.

[7] = Water activity experiment (slurry in acetone/water); assay type: physicochemical; conditions: three days
Description: Water activity experiment was carried out. Crystalline forms I and V ([…]) were slurried in a mixed solvent in acetone/water with different water contents at room temperature and 60° C. for three days, and after three days, solid sample was filtered to test XRPD, and the experimental results are as shown in Table 4.

[8] = Solubility in biological media SGF, FaSSIF and FeSSIF; assay type: physicochemical
Description: Compared with other crystalline forms, crystalline forms I, III and V show good solid properties, so their solubility was tested respectively.
10 mg of the sample was weighed, and then 2.0 mL of biological media buffer (i.e. the target concentration is 5 mg/mL) was added to form a suspension. The mixture was put in a constant temperature water bath shaker (37° C., 100 rpm), and sampled 500 μL at 0.5, 2 and 24 hours respectively. After filtration, the pH value and HPLC concentration of filtrate were tested respectively, and the solid sample obtained by filtration was tested by XRPD.

refractory cough = conditions: phase II clinical trial; cited from earlier work
SD rats = test: Taste disorder test by double bottle method; assay type: in vivo, rat; conditions: single intraperitoneal injection, 15 minutes
Text: SPF male SD rats (6-8 weeks) received 3 days of adaptive drinking water training immediately after storage, and the specific training content was that animals were kept in a single cage, and two bottles of water (both common drinking water) were placed in each cage, and during the adaptive training, water treatment was forbidden all night (the drinking water bottle was removed), and drinking water was given again at 8:30 am to 5:30 pm, and then this cycle lasted for 3 days, and the two bottles of water were changed every day, and during the whole adaptive training period, animals were ate freely. All animal water bottles were removed 20 hours before the formal experiment, and water was banned until the time of the experiment. During the formal experiment, all animals were randomly divided into groups, and the test compound or vehicle was given before the water supply was renewed, and the drug was given by single intraperitoneal injection, and the administration time was determined according to the Tmax of the test compound. Then, the animals were placed in a single cage, and given two bottles of drinking water, one bottle of ordinary drinking water and one bottle of 0.3 mM tonic water, and the water consumption of animals was observed within 15 minutes, and the quinine water consumption/ordinary water consumption was statistically analyzed, with positive compound 2 as the positive control of taste disorder.

[9] = male, beagle, dog, plasma, po, 10 mg/kg, 0.5% CMC-Na suspension

SMILES: COC(=O)N1CCO[C@@H](Cc2c(-c3c(F)cc(S(N)(=O)=O)cc3F)nc3cc(Cl)ccn23)C1 [Crystalline form I, methyl (S)-2-((7-chloro-2-(2,6-difluoro-4-sulfamoylphenyl)imidazo[1,2-a]pyridin-3-yl)methyl)morpholine-4-carboxylate]
- crystalline form and crystallinity after grinding [1]: decreased significantly
- relative stability inferred from competitive slurrying and water activity tests [2]: more stable in organic solvent system or mixed solvent with low water content (≤10%)
- Initial purity (Peak area %) ([3]; 0 days): 99.38 peak area %
- Purity -7 days (peak area %) ([3]; 40° C./75% RH (open)): 99.38 peak area %
- stability conclusion in words ([3]; 40° C./75% RH and 60° C., seven days): good chemical stability
- Purity -7 days (peak area %) ([3]; 60° C. (covered)): 99.37 peak area %
- mutual crystal transformation in solid state [4]: no mutual crystal transformation trend
- AUC (crystalline form I):AUC (crystalline form V) [5]: 300.53%
- AUClast ([5]; 0.5% CMC-Na suspension, plasma): 7926.33 ng·h/mL
- Cmax ([5]; 0.5% CMC-Na suspension, plasma): 991.33 ng/mL
- F ([5]; 0.5% CMC-Na suspension, plasma): 35.2%
- T1/2 ([5]; 0.5% CMC-Na suspension, plasma): 11.91 h
- Tmax ([5]; 0.5% CMC-Na suspension, plasma): 2.00 h
- AUC(0-inf) [5, 9]: 8940 ng·h/mL
- MRT last [5, 9]: 8.11 h
- XRPD before and after the DVS test [6]: remains unchanged
- relative humidity above which transformed into hydrate of crystalline form IV [6]: higher than 40 % RH
- DVS pattern, behaviour in words ([6]; 25° C.): increases sharply
- hygroscopicity (DVS) ([6]; 80% RH, 25° C.): 6.8%
- The experimental results (crystalline form) ([7]; water content 10%, 60° C.): Crystalline form VI
- The experimental results (crystalline form) ([7]; water content 10%, RT): Crystalline form I
- The experimental results (crystalline form) ([7]; water content 50%, 60° C.): Crystalline form IV
- The experimental results (crystalline form) ([7]; water content 50%, RT): Crystalline form IV
- The experimental results (crystalline form) ([7]; water content 90%, 60° C.): Crystalline form IV
- The experimental results (crystalline form) ([7]; water content 90%, RT): Crystalline form IV
- crystalline form during the solubility test ([8]; FaSSIF and FeSSIF buffer): transformed into hydrate of crystalline form IV
- pH of filtrate ([8]; FaSSIF, 0.5 h): 6.4
- Solubility ([8]; FaSSIF, 0.5 h, 37° C.): 26 µg/mL (≈ 51.9 µM)
- pH of filtrate ([8]; FaSSIF, 2 h): 6.4
- Solubility ([8]; FaSSIF, 2 h, 37° C.): 25 µg/mL (≈ 49.9 µM)
- pH of filtrate ([8]; FaSSIF, 24 h): 6.4
- Solubility ([8]; FaSSIF, 24 h, 37° C.): 34 µg/mL (≈ 67.9 µM)
- solubility at 0.5 h ([8]; FeSSIF, 37 °C, fessif, thermodynamic from solid, FeSSIF, 0.5 h, 37° C., read-out: Solubility): 72 µg/mL (≈ 144 µM)
- solubility at 2 h ([8]; FeSSIF, 37 °C, fessif, thermodynamic from solid, FeSSIF, 2 h, 37° C., read-out: Solubility): 83 µg/mL (≈ 166 µM)
- solubility at 24 h ([8]; FeSSIF, 37 °C, thermodynamic from solid, 24 h): 107 µg/mL (≈ 214 µM)
- pH of filtrate ([8]; FeSSIF, 0.5 h): 5.0
- pH of filtrate ([8]; FeSSIF, 2 h): 5.1
- pH of filtrate ([8]; FeSSIF, 24 h): 5.1
- pH of filtrate ([8]; SGF, 0.5 h): 1.2
- pH of filtrate ([8]; SGF, 2 h): 1.3
- pH of filtrate ([8]; SGF, 24 h): 1.2

SMILES: COc1cc(C(C)C)c(Oc2cnc(N)nc2N)cc1S(N)(=O)=O [Positive compound 2, reference compound]
- effect on refractory cough (refractory cough): good effect
- taste side effect (refractory cough): taste disturbance is a serious problem
- Quinine/tap water * 100% (SD rats; 10 mg/kg): 18.62%
- Quinine/tap water * 100% (SD rats; 20 mg/kg): 34.99%
